# Species on record: Rattus norvegicus
# Assay: DrugMatrix - Regimen: Daily Repeat
# Assay type: toxicity, organism-based, Sprague-Dawley
# Parameters: regimen Daily Repeat, gender Male, age 6-8 weeks
# Conditions: in vivo, po, route oral GAVAGE, vehicle .5 % CMC; for ABSOLUTE BASOPHIL / ABSOLUTE EOSINOPHIL / ABSOLUTE LYMPHOCYTE / ABSOLUTE MONOCYTE / ABSOLUTE SEGMENTED NEUTROPHIL / BASOPHIL / EOSINOPHIL / ERYTHROCYTE COUNT / HEMATOCRIT / HEMOGLOBIN / LEUKOCYTE COUNT / LYMPHOCYTE / MEAN CORPUSCULAR HEMOGLOBIN / MEAN CORPUSCULAR HEMOGLOBIN CONCENTRATION / MEAN CORPUSCULAR VOLUME / MONOCYTE / NEUTROPHIL / NUCLEATED RED BLOOD CELLS / PLATELET COUNT: tissue Blood; for ALANINE AMINOTRANSFERASE / ALBUMIN / ALKALINE PHOSPHATASE / ASPARTATE AMINOTRANSFERASE / BLOOD UREA NITROGEN / CARBON DIOXIDE / CHLORIDE / CHOLESTEROL / CREATINE PHOSPHOKINASE / CREATININE / GLUCOSE / LACTATE DEHYDROGENASE / LIPASE / PHOSPHORUS / POTASSIUM / SODIUM / TOTAL BILIRUBIN / TOTAL PROTEIN / URIC ACID: tissue Plasma
# [1] = 0.3 mg/kg, 72 h, dose level Low, time 3 day
# [2] = 0.3 mg/kg, 120 h, dose level Low, time 5 day
# [3] = 5 mg/kg, 72 h, dose level High, time 3 day
# [4] = 5 mg/kg, 120 h, dose level High, time 5 day
structure (smiles),measurement,setting,value
Nc1c(CC(=O)O)cccc1C(=O)c1ccc(Br)cc1 [BROMFENAC],ABSOLUTE BASOPHIL,[1],0 CELLS/uL
same,ABSOLUTE EOSINOPHIL,[1],0 CELLS/uL
same,ABSOLUTE LYMPHOCYTE,[1],8435.67 CELLS/uL
same,ABSOLUTE MONOCYTE,[1],96.67 CELLS/uL
same,ABSOLUTE SEGMENTED NEUTROPHIL,[1],1134.33 CELLS/uL
same,BASOPHIL,[1],0%
same,EOSINOPHIL,[1],0%
same,ERYTHROCYTE COUNT,[1],5.55 x10E6/uL
same,HEMATOCRIT,[1],35.1%
same,HEMOGLOBIN,[1],13.07 G/DL
same,LEUKOCYTE COUNT,[1],9.67 x10E3/uL
same,LYMPHOCYTE,[1],88%
same,MEAN CORPUSCULAR HEMOGLOBIN,[1],23.57 pg
same,MEAN CORPUSCULAR HEMOGLOBIN CONCENTRATION,[1],37.2 G/DL
same,MEAN CORPUSCULAR VOLUME,[1],63.33 fL
same,MONOCYTE,[1],1%
same,NEUTROPHIL,[1],11%
same,NUCLEATED RED BLOOD CELLS,[1],0 /100WBC
same,PLATELET COUNT,[1],1028.33 x10E3/uL
same,ALANINE AMINOTRANSFERASE,[1],48.33 u/L
same,ALBUMIN,[1],4.43 G/DL
same,ALKALINE PHOSPHATASE,[1],514.33 u/L
same,ASPARTATE AMINOTRANSFERASE,[1],96 u/L
same,BLOOD UREA NITROGEN,[1],15.67 mg/dL
same,CARBON DIOXIDE,[1],31.33 mmol/L
same,CHLORIDE,[1],101.5 MEQ/L
same,CHOLESTEROL,[1],68.67 mg/dL
same,CREATINE PHOSPHOKINASE,[1],316.33 u/L
same,CREATININE,[1],0.23 mg/dL
same,GLUCOSE,[1],142 mg/dL
same,LACTATE DEHYDROGENASE,[1],121.67 u/L
same,LIPASE,[1],9.67 u/L
same,PHOSPHORUS,[1],11.03 mg/dL
same,POTASSIUM,[1],5.91 MEQ/L
same,SODIUM,[1],144.65 MEQ/L
same,TOTAL BILIRUBIN,[1],0.1 mg/dL
same,TOTAL PROTEIN,[1],6.13 G/DL
same,URIC ACID,[1],0.67 mg/dL
same,ABSOLUTE BASOPHIL,[2],0 CELLS/uL
same,ABSOLUTE EOSINOPHIL,[2],0 CELLS/uL
same,ABSOLUTE LYMPHOCYTE,[2],10092.67 CELLS/uL
same,ABSOLUTE MONOCYTE,[2],194 CELLS/uL
same,ABSOLUTE SEGMENTED NEUTROPHIL,[2],1180 CELLS/uL
same,BASOPHIL,[2],0%
same,EOSINOPHIL,[2],0%
same,ERYTHROCYTE COUNT,[2],5.77 x10E6/uL
same,HEMATOCRIT,[2],37.27%
same,HEMOGLOBIN,[2],13.97 G/DL
same,LEUKOCYTE COUNT,[2],11.47 x10E3/uL
same,LYMPHOCYTE,[2],87.33%
same,MEAN CORPUSCULAR HEMOGLOBIN,[2],24.17 pg
same,MEAN CORPUSCULAR HEMOGLOBIN CONCENTRATION,[2],37.5 G/DL
same,MEAN CORPUSCULAR VOLUME,[2],64.5 fL
same,MONOCYTE,[2],1.33%
same,NEUTROPHIL,[2],11.33%
same,NUCLEATED RED BLOOD CELLS,[2],0 /100WBC
same,PLATELET COUNT,[2],1201.33 x10E3/uL
same,ALANINE AMINOTRANSFERASE,[2],48.67 u/L
same,ALBUMIN,[2],4.57 G/DL
same,ALKALINE PHOSPHATASE,[2],385 u/L
same,ASPARTATE AMINOTRANSFERASE,[2],86.33 u/L
same,BLOOD UREA NITROGEN,[2],15.67 mg/dL
same,CARBON DIOXIDE,[2],35.33 mmol/L
same,CHLORIDE,[2],99.67 MEQ/L
same,CHOLESTEROL,[2],83.67 mg/dL
same,CREATINE PHOSPHOKINASE,[2],586 u/L
same,CREATININE,[2],0.2 mg/dL
same,GLUCOSE,[2],151 mg/dL
same,LACTATE DEHYDROGENASE,[2],148.33 u/L
same,LIPASE,[2],9.33 u/L
same,PHOSPHORUS,[2],10.9 mg/dL
same,POTASSIUM,[2],6.38 MEQ/L
same,SODIUM,[2],143.9 MEQ/L
same,TOTAL BILIRUBIN,[2],0.2 mg/dL
same,TOTAL PROTEIN,[2],6.77 G/DL
same,URIC ACID,[2],0.8 mg/dL
same,ABSOLUTE BASOPHIL,[3],0 CELLS/uL
same,ABSOLUTE EOSINOPHIL,[3],0 CELLS/uL
same,ABSOLUTE LYMPHOCYTE,[3],5201.4 CELLS/uL
same,ABSOLUTE MONOCYTE,[3],116 CELLS/uL
same,ABSOLUTE SEGMENTED NEUTROPHIL,[3],1982.6 CELLS/uL
same,BASOPHIL,[3],0%
same,EOSINOPHIL,[3],0%
same,ERYTHROCYTE COUNT,[3],4.97 x10E6/uL
same,HEMATOCRIT,[3],30.78%
same,HEMOGLOBIN,[3],11.8 G/DL
same,LEUKOCYTE COUNT,[3],7.3 x10E3/uL
same,LYMPHOCYTE,[3],72.6%
same,MEAN CORPUSCULAR HEMOGLOBIN,[3],23.92 pg
same,MEAN CORPUSCULAR HEMOGLOBIN CONCENTRATION,[3],38.52 G/DL
same,MEAN CORPUSCULAR VOLUME,[3],62.06 fL
same,MONOCYTE,[3],1.8%
same,NEUTROPHIL,[3],25.6%
same,NUCLEATED RED BLOOD CELLS,[3],0 /100WBC
same,PLATELET COUNT,[3],593.4 x10E3/uL
same,ALANINE AMINOTRANSFERASE,[3],100 u/L
same,ALBUMIN,[3],3.64 G/DL
same,ALKALINE PHOSPHATASE,[3],337.8 u/L
same,ASPARTATE AMINOTRANSFERASE,[3],193.2 u/L
same,BLOOD UREA NITROGEN,[3],10.2 mg/dL
same,CARBON DIOXIDE,[3],31.2 mmol/L
same,CHLORIDE,[3],103.4 MEQ/L
same,CHOLESTEROL,[3],84.6 mg/dL
same,CREATINE PHOSPHOKINASE,[3],304.4 u/L
same,CREATININE,[3],0.19 mg/dL
same,GLUCOSE,[3],147.4 mg/dL
same,LACTATE DEHYDROGENASE,[3],116.6 u/L
same,LIPASE,[3],8.4 u/L
same,PHOSPHORUS,[3],11.14 mg/dL
same,POTASSIUM,[3],5.44 MEQ/L
same,SODIUM,[3],146.66 MEQ/L
same,TOTAL BILIRUBIN,[3],0.14 mg/dL
same,TOTAL PROTEIN,[3],5.36 G/DL
same,URIC ACID,[3],0.76 mg/dL
same,ABSOLUTE BASOPHIL,[4],0 CELLS/uL
same,ABSOLUTE EOSINOPHIL,[4],23.5 CELLS/uL
same,ABSOLUTE LYMPHOCYTE,[4],8259.25 CELLS/uL
same,ABSOLUTE MONOCYTE,[4],191.75 CELLS/uL
same,ABSOLUTE SEGMENTED NEUTROPHIL,[4],1625.5 CELLS/uL
same,BASOPHIL,[4],0%
same,EOSINOPHIL,[4],0.25%
same,ERYTHROCYTE COUNT,[4],4.46 x10E6/uL
same,HEMATOCRIT,[4],28.57%
same,HEMOGLOBIN,[4],11 G/DL
same,LEUKOCYTE COUNT,[4],10.1 x10E3/uL
same,LYMPHOCYTE,[4],81.75%
same,MEAN CORPUSCULAR HEMOGLOBIN,[4],24.82 pg
same,MEAN CORPUSCULAR HEMOGLOBIN CONCENTRATION,[4],38.55 G/DL
same,MEAN CORPUSCULAR VOLUME,[4],64.3 fL
same,MONOCYTE,[4],2%
same,NEUTROPHIL,[4],16%
same,NUCLEATED RED BLOOD CELLS,[4],0.5 /100WBC
same,PLATELET COUNT,[4],1087.25 x10E3/uL
same,ALANINE AMINOTRANSFERASE,[4],38.5 u/L
same,ALBUMIN,[4],3.65 G/DL
same,ALKALINE PHOSPHATASE,[4],255.67 u/L
same,ASPARTATE AMINOTRANSFERASE,[4],60 u/L
same,BLOOD UREA NITROGEN,[4],13.75 mg/dL
same,CARBON DIOXIDE,[4],31.5 mmol/L
same,CHLORIDE,[4],101.67 MEQ/L
same,CHOLESTEROL,[4],80.25 mg/dL
same,CREATINE PHOSPHOKINASE,[4],189 u/L
same,CREATININE,[4],0.15 mg/dL
same,GLUCOSE,[4],141.25 mg/dL
same,LACTATE DEHYDROGENASE,[4],82.25 u/L
same,LIPASE,[4],8.25 u/L
same,PHOSPHORUS,[4],10.7 mg/dL
same,POTASSIUM,[4],5.87 MEQ/L
same,SODIUM,[4],145.27 MEQ/L
same,TOTAL BILIRUBIN,[4],0.13 mg/dL
same,TOTAL PROTEIN,[4],5.8 G/DL
same,URIC ACID,[4],0.57 mg/dL
